According to the NIST ThermoML archive (doi:10.1016/j.jct.2013.06.008):

Conditions: 100 kPa, Liquid; for electrical conductivity: Alternating current cell with electrodes

CCCCCC[n+]1cccc(C)c1.O=S(=O)([N-]S(=O)(=O)C(F)(F)F)C(F)(F)F
Conditions	electrical conductivity [S/m]
278.15 K	0.0495
283.15 K	0.067
288.15 K	0.0885
293.15 K	0.116
298.15 K	0.148
303.15 K	0.187
308.15 K	0.231
313.15 K	0.283
318.15 K	0.342
323.15 K	0.406
328.15 K	0.477
333.15 K	0.553
338.15 K	0.638
343.15 K	0.728
348.15 K	0.822
353.15 K	0.92

Conditions	mass density, Buoyancy - hydrostatic balance [kg/m3]	viscosity, Capillary tube (Ostwald / Ubbelohde) method [mPa·s]
283.15 K	1373.6	–
288.15 K	1369.7	–
293.15 K	1365.3	–
298.15 K	1361.5	86.59
303.15 K	1357	67.83
308.15 K	1352.9	54.23
313.15 K	1348.7	44.24
318.15 K	1344.7	36.21
323.15 K	1340.3	29.97
328.15 K	1336	25.08
333.15 K	1331.7	21.31
338.15 K	1328	18.28
343.15 K	–	15.88
348.15 K	–	13.71
353.15 K	–	11.99

CCCCCC[n+]1ccc(C)cc1.O=S(=O)([N-]S(=O)(=O)C(F)(F)F)C(F)(F)F
Conditions	electrical conductivity [S/m]
283.15 K	0.0839
288.15 K	0.11
293.15 K	0.145
298.15 K	0.185
303.15 K	0.231
308.15 K	0.283
313.15 K	0.346
318.15 K	0.415
323.15 K	0.487
328.15 K	0.571
333.15 K	0.652
338.15 K	0.756
343.15 K	0.861
348.15 K	0.968
353.15 K	1.07

Conditions	mass density, Vibrating tube method [kg/m3]	viscosity, Concentric cylinders viscometry [mPa·s]
283.15 K	1365.3	181.62
288.15 K	1360.8	133.92
293.15 K	1356.3	101.07
298.15 K	1351.8	77.99
303.15 K	1347.4	61.3
308.15 K	1342.9	49.03
313.15 K	1338.5	39.75
318.15 K	1334.1	32.73
323.15 K	1329.6	27.38
328.15 K	1325.2	23.11
333.15 K	1320.8	19.71
338.15 K	1316.5	16.97
343.15 K	1312.1	14.73
348.15 K	1307.8	12.87
353.15 K	1303.4	11.32

CCC[n+]1cccc(C)c1.O=S(=O)([N-]S(=O)(=O)C(F)(F)F)C(F)(F)F
Conditions	electrical conductivity [S/m]
278.15 K	0.152
283.15 K	0.199
288.15 K	0.253
293.15 K	0.318
298.15 K	0.393
303.15 K	0.476
308.15 K	0.571
313.15 K	0.671
318.15 K	0.786
323.15 K	0.904
328.15 K	1.04
333.15 K	1.18
338.15 K	1.33
343.15 K	1.49
348.15 K	1.65
353.15 K	1.83

Conditions	mass density, Buoyancy - hydrostatic balance [kg/m3]	viscosity, Capillary tube (Ostwald / Ubbelohde) method [mPa·s]
288.15 K	1459.6	–
293.15 K	1455.6	–
298.15 K	1451.4	54.12
303.15 K	1447.1	43.46
308.15 K	1442.6	35.27
313.15 K	1438	29.18
318.15 K	1433.2	24.32
323.15 K	1428.7	20.87
328.15 K	1424.5	17.94
333.15 K	1420.3	15.15
338.15 K	1416	13.4
343.15 K	–	11.74
348.15 K	–	10.37
353.15 K	–	9.19
